Test results taken from patent publication US6110961A, “Phenoxathin derivatives as inhibitors of monoamine oxidase” (Krenitsky Pharmaceuticals, Inc., priority 1999, dated 2000).

Tests used:
MAO-A = target: T1, MAO-A (Rattus norvegicus, UniProt P21396); assay: MAO-A inhibition in mitochondrial extracts of rat brain (in vitro, double-label assay); format: biochemical; conditions: [3H]serotonin 0.2 mM substrate
T1 construct: mitochondrial extracts of rat brain; from tissue; host or cells: rat brain, mitochondrial extracts
T1 sequence (P21396 1-526): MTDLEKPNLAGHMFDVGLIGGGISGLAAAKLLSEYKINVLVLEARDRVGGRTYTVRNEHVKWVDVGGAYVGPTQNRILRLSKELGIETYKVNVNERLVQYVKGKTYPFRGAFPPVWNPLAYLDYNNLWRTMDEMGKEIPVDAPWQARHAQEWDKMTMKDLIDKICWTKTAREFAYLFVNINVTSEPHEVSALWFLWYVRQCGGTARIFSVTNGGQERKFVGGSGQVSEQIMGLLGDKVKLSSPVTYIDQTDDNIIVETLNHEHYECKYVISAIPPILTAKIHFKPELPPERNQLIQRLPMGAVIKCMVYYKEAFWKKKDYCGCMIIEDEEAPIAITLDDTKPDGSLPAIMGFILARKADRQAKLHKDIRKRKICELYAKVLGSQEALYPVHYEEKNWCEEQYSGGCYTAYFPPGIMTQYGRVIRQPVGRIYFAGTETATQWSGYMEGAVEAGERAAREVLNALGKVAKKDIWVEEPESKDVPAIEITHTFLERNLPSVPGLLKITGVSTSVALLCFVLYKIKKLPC
Method: MAO was assayed with [^3 H]serotonin (0.2 mM, 5 Ci/mole) and [^14 C]β-phenethylamine (10 μM, 3 Ci/mole) as substrates in a double-label assay (white and Glassman, J. Neurochem. 29:987-97 (1977)). Under these conditions, serotonin is selectively metabolized by MAO-A and β-phenethylamine by MAO-B. […]
Compounds of formula (I) produced a potent selective inhibition of MAO-A in mitochondrial extracts of rat brain, the IC50 s (concentration producing 50% inhibition) being shown in Table I. This inhibition was competitive vs. the substrates serotonin or tyramine.
The results are shown in Table 1 with the IC50 being the concentration providing 50% inhibition. No significant inhibition of MAO-B was found with these compounds.

MAO = conditions: background art; cited from earlier work
liver MAO-A = conditions: single oral dose giving approximately 80% inhibition of brain MAO-A; 3 hours

Row | SMILES | IC50 (MAO-A) | also measured
1 | CCC(C)Oc1ccc2c(c1)Oc1ccccc1S2(=O)=O (racemic) [Compound 13, (rac)-3-(1-methylpropoxy)phenoxathiin-10,10-dioxide] | 14 nM | 
2 | CC(CO)Oc1ccc2c(c1)Oc1ccccc1S2(=O)=O (racemic) [Compound 18, (rac)-2-(3-phenoxathiinyloxy)propanol S,S-dioxide] | 20 nM | 
3 | CC(Oc1ccc2c(c1)Oc1ccccc1S2(=O)=O)C(F)(F)F (racemic) [Compound 20, (rac)-3-(2,2,2-trifluoro-1-methylethoxy)phenoxathiin-10,10-dioxide] | 5 nM | 
4 | CC(Oc1ccc2c(c1)Oc1ccccc1S2(=O)=O)C(F)F (racemic) [Compound 25, (rac)-3-(1-(difluoromethyl)ethoxy)phenoxathiin-10,10-dioxide] | 1.8 nM | 
5 | O=S1(=O)c2ccccc2Oc2cc(OC(CF)C(F)(F)F)ccc21 (racemic) [Compound 26, (rac)-3-(2-fluoro-1-(trifluoromethyl)ethoxy)phenoxathiin-10,10-dioxide] |  | MAO-A Inhibition (rat brain) in vitro IC50 (MAO-A): active
6 | CC(CF)Oc1ccc2c(c1)Oc1ccccc1S2(=O)=O (racemic) [Compound 27, (rac)-3-(1-(fluoromethyl)ethoxy)phenoxathiin-10,10-dioxide] |  | MAO-A Inhibition (rat brain) in vitro IC50 (MAO-A): active
7 | O=S1(=O)c2ccccc2Oc2cc(OC(CO)C(F)(F)F)ccc21 (racemic) [Compound 28, (rac)-2-(3-phenoxathiinyloxy)-2-(trifluoromethyl)ethanol-S,S-dioxide] | 5 nM | 
8 | N[C@@H]1C[C@H]1c1ccccc1 (relative stereo) [tranylcypromine] |  | selectivity and reversibility of MAO inhibition (MAO): non-selective, irreversible inhibitors
9 | CC(Oc1ccc2c(c1)Oc1ccccc1S2(=O)=O)C(F)(F)F (single isomer, unassigned) [Compound 29, (R*)-3-(2,2,2-trifluoro-1-methylethoxy)phenoxathiin-10,10-dioxide] | 2 nM | 
10 | CC(Oc1ccc2c(c1)Oc1ccccc1S2(=O)=O)C(F)(F)F (single isomer, unassigned) [Compound 30, (S*)-3-(2,2,2-trifluoro-1-methylethoxy)phenoxathiin-10,10-dioxide] | 14 nM | 
11 | CC(C)Oc1cc(F)c2c(c1)Oc1ccccc1S2(=O)=O [Compound 1, 1-fluoro-3-isopropoxyphenoxathiin 10,10-dioxide] | 1.1 nM | 
12 | CCOc1ccc2c(c1)Oc1ccccc1S2(=O)=O [Compound 2, 3-ethoxyphenoxathiin 10,10-dioxide] | 2 nM | 
13 | CCCOc1ccc2c(c1)Oc1ccccc1S2(=O)=O [Compound 3, 3-propoxyphenoxathiin 10,10-dioxide] | 2.5 nM | 
14 | CC(C)Oc1cc2c(c(F)c1F)S(=O)(=O)c1ccccc1O2 [Compound 4, 1,2-difluoro-3-isopropoxyphenoxathiin 10,10-dioxide] | 3 nM | 
15 | CC(C)Oc1ccc2c(c1)Oc1ccccc1S2(=O)=O [Compound 5, 3-isopropoxyphenoxathiin 10,10-dioxide] | 3.4 nM | 
16 | CC[C@@H](C)Oc1ccc2c(c1)Oc1ccccc1S2(=O)=O [Compound 6, (R)-3-(1-methylpropoxy)phenoxathiin 10,10-dioxide] | 4 nM | 
17 | CC[C@H](C)Oc1ccc2c(c1)Oc1ccccc1S2(=O)=O [Compound 7, (S)-3-(1-methylpropoxy)phenoxathiin 10,10-dioxide] | 4 nM | 

Row | SMILES | IC50 (MAO-A) | also measured
18 | CCCCOc1ccc2c(c1)Oc1ccccc1S2(=O)=O [Compound 8, 3-butoxyphenoxathiin 10,10-dioxide] | 5 nM | 
19 | CC(C)Oc1ccc2c(c1)Oc1cc(F)c(F)cc1S2(=O)=O [Compound 9, 7,8-difluoro-3-isopropoxyphenoxathiin-10,10-dioxide] | 6 nM | 
20 | CC(C)Oc1ccc2c(c1)Oc1cccc(F)c1S2(=O)=O [Compound 10, 9-fluoro-3-isopropoxyphenoxathiin 10,10-dioxide] | 8 nM | 
21 | CC(C)Oc1ccc2c(c1)Oc1cc(F)ccc1S2(=O)=O [Compound 11, 7-fluoro-3-isopropoxyphenoxathiin 10,10-dioxide] | 9 nM | 
22 | CC(C)Oc1cc2c(cc1F)S(=O)(=O)c1ccccc1O2 [Compound 12, 2-fluoro-3-isopropoxyphenoxathiin 10,10-dioxide] | 12 nM | 
23 | COc1ccc2c(c1)Oc1ccccc1S2(=O)=O [Compound 14, 3-methoxyphenoxathiin 10,10-dioxide] | 20 nM | 
24 | CC(C)(C)Oc1ccc2c(c1)Oc1ccccc1S2(=O)=O [Compound 15, 3-tert-butoxyphenoxathiin 10,10-dioxide] | 26 nM | 
25 | CC(C)Oc1cc2c(cc1F)S(=O)(=O)c1ccc(F)cc1O2 [Compound 16, 2,7-difluoro-3-isopropoxyphenoxathiin 10,10-dioxide] | 35 nM | 
26 | CCCCCOc1ccc2c(c1)Oc1ccccc1S2(=O)=O [Compound 17, 3-(pentyloxy)phenoxathiin 10,10-dioxide] | 55 nM | 
27 | CC(C)Oc1cc(F)c2c(c1)Oc1cc(F)ccc1S2(=O)=O [Compound 19, 1,7-difluoro-3-isopropoxyphenoxathiin 10,10-dioxide] | 5 nM | 
28 | C[C@@H](CO)Oc1ccc2c(c1)Oc1ccccc1S2(=O)=O [Compound 21, (S)-(+)-2-(3-phenoxathiinyloxy)propanol S,S-dioxide] | 70 nM | 
29 | O=S1(=O)c2ccccc2Oc2cc(OCC(F)(F)F)ccc21 [Compound 22, 3-(2,2,2-trifluoroethoxy)phenoxathiin 10,10-dioxide] | 8 nM | 
30 | O=S1(=O)c2ccccc2Oc2cc(OC(CF)CF)ccc21 [Compound 23, 3-[2-fluoro-1-(fluoromethyl)ethoxy]phenoxathiin-10,10-dioxide] | 2 nM | 
31 | O=S1(=O)c2ccccc2Oc2cc(OC(C(F)F)C(F)F)ccc21 [Compound 24, 3-(2,2-(difluoro)-1-(difluoromethyl)ethoxy)phenoxathiin-10,10-dioxide] | 3.5 nM | 
32 | O=S1(=O)c2ccc(F)cc2Oc2cc(OCC(F)(F)F)ccc21 [Compound 31, 3-fluoro-7-(2,2,2-trifluoroethoxy)phenoxathiin-10,10-dioxide] |  | MAO-A Inhibition (rat brain) in vitro IC50 (MAO-A): active
33 | Cc1cc(C(=O)NNCc2ccccc2)no1 [isocarboxazid] |  | selectivity and reversibility of MAO inhibition (MAO): non-selective, irreversible inhibitors
34 | NNCCc1ccccc1 [phenelzine] |  | inhibition of liver MAO-A (liver MAO-A): ≥ 90%; selectivity and reversibility of MAO inhibition (MAO): non-selective, irreversible inhibitors
